From publication PMC4226674, “A phase I trial of the HIV protease inhibitor nelfinavir in adults with solid tumors” (Oncotarget, 2014)
Several values for one entry are separate records, joined by “and”; a condition that tells them apart may be missing. Equal entries are not always repeated.

Legend:
[1] = Description: This single institution, open-label, Phase Ia dose escalation study was performed to establish the MTD and DLT of nelfinavir in subjects with advanced refractory solid tumors. The study used a modified Fibonacci scheme, in which cohorts of three to six subjects were entered at each dose level until two patients developed DLT. If two or more subjects encountered DLT, then the MTD was exceeded. The MTD was defined as the dose level at which less than 2 of 6 subjects experienced DLT. Each cycle lasted 21 days. Up to 6 additional patients were allowed to be enrolled at the MTD in order to better establish potential rates of toxicity.
Physical examinations, toxicity assessments and laboratory analyses were conducted weekly during cycle 1 and then every three weeks beginning cycle 2.
The starting dose of nelfinavir was the FDA-approved dose in HIV patients of 1250 mg twice daily, which comprised dose level (DL) 1. Dose escalation proceeded in 625 mg, twice-daily increments (DL2: 1875 mg, DL3: 2500 mg, DL4: 3125 mg, DL5: 3750 mg, DL6: 4375 mg).
Toxicity was graded according to the National Cancer Institute Common Toxicity Criteria, version 3.0.

CYP3A4 = target: T1, CYP3A4 (Homo sapiens, UniProt P08684); test: CYP3A4 phenotyping with oral midazolam before and at nelfinavir steady state; assay type: in vivo
T1 construct: To determine CYP3A4 phenotype, a single 3 mg oral dose of midazolam hydrochloride, a CYP3A4 substrate, was administered; from tissue; host or cells: in vivo, the patients' own (hepatic/intestinal) enzyme
Description: To determine CYP3A4 phenotype, a single 3 mg oral dose of midazolam hydrochloride, a CYP3A4 substrate, was administered at day -2 (2 days prior to commencing nelfinavir) and again at steady state (cycle 1 day 20). Serial venous blood samples were collected at 15, 30, 60, 120, 180, 240, and 300 minutes following administration of midazolam. […] Plasma concentrations of midazolam and nelfinavir were determined with a validated assay employing high performance liquid chromatography (HPLC) with mass spectrometric detection. Noncompartmental pharmacokinetic analyses were performed with WinNonlin 5.2 (Pharsight). Individual concentration-time profiles were constructed for each patient, course and drug resulting in four profiles per patient (two each for midazolam and nelfinavir). The maximum plasma concentration (Cmax) and the time of maximum plasma concentration (Tmax) were the observed values. Drug exposure was estimated using the area under the concentration-time curve (AUC). The area under the concentration-time curve (AUC) from time zero to the time of the final quantifiable sample (AUClast) was calculated using the linear trapezoidal method. The area under the concentration-time curve from time zero to infinity (AUCinf) was calculated by extrapolation, using the terminal rate constant from the last measurable concentration.

[2] = tested on: P-AKT S473, P-EIF2 alpha S51, ATF3, CHOP in PBMCs; test: Surrogate biomarkers in PBMCs by immunoblotting; assay type: in vivo, human
Description: (§1) Blood was collected in Vacutainer CPT collection tubes with sodium heparin (BD Biosciences cat# 362753) and mononuclear cells were isolated as per the manufacturer's instructions. PBMCs were washed with PBS and lysed in 2X LSB buffer, aliquotted and stored at -80°C. For analysis, equal amounts of protein per sample were run on 10-12% SDS-PAGE gels, then transferred onto nitrocellulose membranes. Membranes were blocked in 5% milk in TBS + 0.1% tween (TBST) and incubated with primary antibody diluted in 5% BSA in TBST at 4 degrees overnight. The next day membranes were washed, incubated with HRP-linked secondary antibody and developed using ECL chemiluminescent reagent (GE Healthcare) and X-ray film as per the manufacturers instructions. […] Antibodies to CHOP sc-7351 and ATF3 sc-188 were from Santa Cruz Biotechnology (Santa Cruz, CA).

P-AKT S473 = test: Akt activation in PBMCs by immunoblotting; assay type: in vivo, human
Description: as §1

P-EIF2 alpha S51 = test: ER stress marker P-EIF2 alpha in PBMCs by immunoblotting; assay type: in vivo, human; conditions: DL4 (3125 mg bid), after 7 or 42 days; printed as 'the same percentage'
Description: (§2) Peripheral blood mononuclear cells (PBMCs) were collected at baseline, and then twice after starting nelfinavir: cycle 1 day 7 and cycle 1 day 42. Levels of P-AKT S473, P-EIF2 alpha S51, ATF3 and CHOP in PBMCs before and after nelfinavir were analyzed by immunoblotting. Blood was collected in Vacutainer CPT collection tubes with sodium heparin (BD Biosciences cat# 362753) and mononuclear cells were isolated as per the manufacturer's instructions. PBMCs were washed with PBS and lysed in 2X LSB buffer [33], aliquotted and stored at -80°C. For analysis, equal amounts of protein per sample were run on 10-12% SDS-PAGE gels, then transferred onto nitrocellulose membranes. Membranes were blocked in 5% milk in TBS + 0.1% tween (TBST) and incubated with primary antibody diluted in 5% BSA in TBST at 4 degrees overnight. The next day membranes were washed, incubated with HRP-linked secondary antibody and developed using ECL chemiluminescent reagent (GE Healthcare) and X-ray film as per the manufacturers instructions. The amount of P-AKT S473, P-EIF2 alpha S51, ATF3 or CHOP in the PBMCs at C1D7 and C1D42 were compared against a baseline sample for each patient, (prior to receiving nelfinavir). Antibodies against P-AKT S473 #4060, P-EIF2 alpha S51 #3398 and β-Actin #4970 were from Cell Signaling Technology (Danvers, MA). […]

ATF3 and/or CHOP = test: ER stress markers ATF3/CHOP in PBMCs by immunoblotting; assay type: in vivo, human; conditions: DL4 (3125 mg bid)
Description: as §2

liposarcoma = conditions: cited from earlier work
[3] = tested on: advanced refractory solid tumors; test: Tumor response by RECIST and duration of therapy
Description: Physical examinations, toxicity assessments and laboratory analyses were conducted weekly during cycle 1 and then every three weeks beginning cycle 2. An electrocardiogram was performed every cycle, and restaging scans were performed at baseline and every two cycles thereafter. Subjects remained on study until disease progression (as determined by RECIST), severe toxicity, or individual choice.
Tumor response was assessed according to Response Evaluation Criteria in Solid Tumors (RECIST) [34] every two cycles.

T1 sequence (P08684 whole entry): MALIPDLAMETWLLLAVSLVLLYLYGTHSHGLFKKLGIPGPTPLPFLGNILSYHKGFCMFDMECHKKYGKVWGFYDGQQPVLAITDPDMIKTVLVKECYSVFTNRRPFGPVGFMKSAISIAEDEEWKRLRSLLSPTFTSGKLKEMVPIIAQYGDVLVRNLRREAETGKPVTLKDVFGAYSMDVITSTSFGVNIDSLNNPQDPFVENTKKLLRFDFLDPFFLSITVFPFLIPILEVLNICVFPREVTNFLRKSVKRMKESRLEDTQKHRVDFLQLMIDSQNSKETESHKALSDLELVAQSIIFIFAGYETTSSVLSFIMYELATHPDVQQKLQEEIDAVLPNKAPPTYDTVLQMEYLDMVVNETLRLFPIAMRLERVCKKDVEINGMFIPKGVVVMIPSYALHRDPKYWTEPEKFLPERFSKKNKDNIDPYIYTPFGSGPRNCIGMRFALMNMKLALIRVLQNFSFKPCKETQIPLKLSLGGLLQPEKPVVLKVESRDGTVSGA

Cc1c(O)cccc1C(=O)N[C@@H](CSc1ccccc1)[C@H](O)CN1C[C@H]2CCCC[C@H]2C[C@H]1C(=O)NC(C)(C)C [nelfinavir, Nelfinavir]
MTD relative to FDA-approved dose for HIV (fold/times) ([1]; 3125 mg bid vs doses typically used in HIV patients): 2.5 | onset of nelfinavir-induced neutropenia ([1]; human, in vivo): ≤ 3 days | recovery of neutropenia after discontinuation of drug ([1]; human, in vivo): ≤ 3 days | ALT increase, treatment-related AE in cycle 1 ([1]; human, in vivo, 21 days): 5 (20.8) N (%) | Abdominal pain, treatment-related AE in cycle 1 ([1]; human, in vivo, 21 days): 1 (4.2) N (%) | Anemia, treatment-related AE in cycle 1 ([1]; human, in vivo, 21 days): 10 (41.7) N (%) | Anorexia, treatment-related AE in cycle 1 ([1]; human, in vivo, 21 days): 1 (4.2) N (%) | Belching, treatment-related AE in cycle 1 ([1]; human, in vivo, 21 days): 1 (4.2) N (%) | Bloating/, treatment-related AE in cycle 1 ([1]; human, in vivo, 21 days): 3 (12.5) N (%) | Cholesterol increase, treatment-related AE in cycle 1 ([1]; human, in vivo, 21 days): 3 (12.5) N (%) | Dehydration, treatment-related AE in cycle 1 ([1]; human, in vivo, 21 days): 2 (8.3) N (%) | Depression, treatment-related AE in cycle 1 ([1]; human, in vivo, 21 days): 1 (4.2) N (%) | Diarrhea, treatment-related AE in cycle 1 ([1]; human, in vivo, 21 days): 12 (50.0) N (%) | Fatigue, treatment-related AE in cycle 1 ([1]; human, in vivo, 21 days): 5 (20.8) N (%) | Flatulence, treatment-related AE in cycle 1 ([1]; human, in vivo, 21 days): 1 (4.2) N (%) | Heartburn, treatment-related AE in cycle 1 ([1]; human, in vivo, 21 days): 1 (4.2) N (%) | Hyperglycemia, treatment-related AE in cycle 1 ([1]; human, in vivo, 21 days): 4 (16.7) N (%) | Hyperkalemia, treatment-related AE in cycle 1 ([1]; human, in vivo, 21 days): 3 (12.5) N (%) | Hypoalbuminemia, treatment-related AE in cycle 1 ([1]; human, in vivo, 21 days): 5 (20.8) N (%) | Hypokalemia, treatment-related AE in cycle 1 ([1]; human, in vivo, 21 days): 1 (4.2) N (%) | Hyponatremia, treatment-related AE in cycle 1 ([1]; human, in vivo, 21 days): 2 (8.3) N (%) | Hypophosphatemia, treatment-related AE in cycle 1 ([1]; human, in vivo, 21 days): 1 (4.2) N (%) | Hypothyroid, treatment-related AE in cycle 1 ([1]; human, in vivo, 21 days): 1 (4.2) N (%) | Insomnia, treatment-related AE in cycle 1 ([1]; human, in vivo, 21 days): 1 (4.2) N (%) | Leukopenia, treatment-related AE in cycle 1 ([1]; human, in vivo, 21 days): 4 (16.7) N (%) | Lymphopenia, treatment-related AE in cycle 1 ([1]; human, in vivo, 21 days): 10 (41.7) N (%) | Nausea, treatment-related AE in cycle 1 ([1]; human, in vivo, 21 days): 2 (8.3) N (%) | Neutropenia, treatment-related AE in cycle 1 ([1]; human, in vivo, 21 days): 5 (20.8) N (%) | Palpitations, treatment-related AE in cycle 1 ([1]; human, in vivo, 21 days): 1 (4.2) N (%) | Thrombocytopenia, treatment-related AE in cycle 1 ([1]; human, in vivo, 21 days): 2 (8.3) N (%) | anemia, treatment-related AE in cycle 1 ([1]; human, in vivo, 21 days): 41.7% | diarrhea, treatment-related AE in cycle 1 ([1]; human, in vivo, 21 days): 50% | fatigue, treatment-related AE in cycle 1 ([1]; human, in vivo, 21 days): 20.8% | hypoalbuminemia, treatment-related AE in cycle 1 ([1]; human, in vivo, 21 days): 20.8% | lymphopenia, treatment-related AE in cycle 1 ([1]; human, in vivo, 21 days): 41.7% | dose limiting toxicity (DLT) ([1]; human, in vivo, po): grade 4 neutropenia | cumulative toxicities ([1]; in vivo): No cumulative toxicities were observed | maximum tolerated dose (MTD) ([1]; oral, twice daily, 21-day cycles, advanced solid tumors): 3125 mg | change in midazolam clearance (CYP3A4; day 20 (nelfinavir steady state) vs pre-nelfinavir (D-2), 3 mg oral midazolam, 19 subjects, p<0.001): significant decrease | change in midazolam exposure and half-life (CYP3A4; day 20 vs pre-nelfinavir, p<0.05 for each, data not shown): significant increase | biomarker changes in PBMCs from baseline ([2]; DL1 or DL2 (1250, 1875 mg bid)): no biomarker changes | subjects with decrease in P-AKT S473 or increase in EIF2 alpha S51 phosphorylation ([2]; DL3 (2500 mg bid)): 1 out of 3 | subjects showing changes in 3 of 4 biomarkers evaluated ([2]; DL4 (3125 mg bid)): 3 | effect on markers of ER stress in peripheral blood mononuclear cells ([2]; in vivo): induced markers of ER stress | subject PBMCs showing a decrease in P-AKT S473 (P-AKT S473; DL4 (3125 mg bid), after 7 or 42 days): 45% | effect on AKT in peripheral blood mononuclear cells (P-AKT S473; in vivo): inhibited AKT | subject PBMCs showing an increase in P-EIF2 alpha S51 (P-EIF2 alpha S51): 45% | samples showing an increase in ATF3 and/or CHOP (ATF3 and/or CHOP): 27% | MTD in liposarcoma patients (liposarcoma; Phase I trial): MTD was not reached | dose above which PK non-linearity was found (liposarcoma; liposarcoma patients): above 3000 mg bid | dose at which auto-induction was noted (highest dose evaluated) (liposarcoma; liposarcoma patients): 4125 mg BID | time on study, two of the subjects with NET of the midgut ([3]; 3125 mg BID): at least 8 months | subjects remaining on study for 8 months or more ([3]; 3125 mg BID MTD, progressed prior to study entry (four subjects)): 36% | ORR (confirmed partial response) at the MTD ([3]; 3125 mg bid expansion cohort, 11 evaluable subjects): 9% and 9.1% | ORR in the overall population ([3]; 21 evaluable subjects, all dose levels): 4.8% | minor responses in subjects with neuroendocrine tumors ([3]; NET of the midgut or pancreatic origin, MTD): two | subjects with stable disease for more than 6 months ([3]; expansion cohort at the MTD): Thirty-six | levels of circulating chromogranin, synaptophysin, and/or urinary 5-HIAA ([3]; responders with NET and carcinoid syndrome): transient decreases | time to improvement of carcinoid syndrome symptoms (flushing and diarrhea) ([3]; responders with NET that had carcinoid syndrome): ≤ 7 days | Duration of therapy ([3]; subject 1, SCLC, 1250 mg BID): 1.4 mos. | Duration of therapy ([3]; subject 3, SCLC, 1250 mg BID): 1.4 mos. | Duration of therapy ([3]; subject 4, SCLC, 1250 mg BID): 1.4 mos. | Duration of therapy ([3]; subject 5, Anaplastic Thyroid, 1875 mg BID): 1.4 mos. | Duration of therapy ([3]; subject 7, Differentiated Thyroid, 1875 mg BID): 2.8 mos. | Duration of therapy ([3]; subject 8, NSCLC, 1875 mg BID): 3.5 mos. | Duration of therapy ([3]; subject 9, Colorectal, 2500 mg BID): 1.4 mos. | Duration of therapy ([3]; subject 10, Pancreatic Adenocarcinoma, 2500 mg BID): 2.8 mos. | Duration of therapy ([3]; subject 11, NSCLC, 2500 mg BID): 4.1 mos. | Duration of therapy ([3]; subject 12, Differentiated thyroid, 3125 mg BID): 2.1 mos. | Duration of therapy ([3]; subject 14, Renal Cell Cancer, 3125 mg BID): 1.4 mos. | Duration of therapy ([3]; subject 17, Adenoid Cystic, 3125 mg BID): 11 mos. and 11.0 mos. | Duration of therapy ([3]; subject 18, Neuroendocrine tumor, 3125 mg BID): 8.3 mos. | Duration of therapy ([3]; subject 19, Colorectal, 3125 mg BID): 4.1 mos. | Duration of therapy ([3]; subject 21, Adenoid Cystic, 3750 mg BID): 1.4 mos. | Duration of therapy ([3]; subject 23, Prostate, 3125 mg BID): 1.0 mos. | Duration of therapy ([3]; subject 24, SCLC, 3125 mg BID): 2.8 mos. | Duration of therapy ([3]; subject 25, Colorectal, 3125 mg BID): 2.8 mos. | Duration of therapy ([3]; subject 26, Neuroendocrine tumor, 3125 mg BID): 12.4 mos. | Duration of therapy ([3]; subject 27, Neuroendocrine tumor, 3125 mg BID): 3.5 mos. | Duration of therapy ([3]; subject 28, Neuroendocrine tumor (midgut, carcinoid syndrome), 3125 mg BID): 23.5 mos. | additional time on nelfinavir off study with stable disease ([3]; subject that achieved a PR, NET of the midgut): six
